Assays:
[1] = cited from earlier work
porcine airway = assay: Ex vivo porcine airway models (summary statement)
Excerpt: Abnormal mucus accumulation in airways has deleterious, and fatal consequence in patients suffering from respiratory obstructive diseases, such as cystic fibrosis (CF), COPD and asthma. Therefore, there is a need for therapies aimed at decreasing mucus accumulation to facilitate airway mucus clearance.

CC(C)(C)c1cc(C(C)(C)C)c(NC(=O)c2c[nH]c3ccccc3c2=O)cc1O [Ivacaftor, reference compound]
improvement of lung function ([1]; taken by mouth, CF with ivacaftor-responsive mutations): about 10%

CC(=O)N[C@@H](CS)C(=O)O [NAC, N-acetylcysteine, reference compound]
efficacy with respect to improvement of lung function or reduction in pulmonary exacerbations ([1]; inhaled, CF and COPD): do not support the efficacy

NCCSSCCN [cystamine, reference compound]
accumulation of viscous mucus and mucociliary clearance (porcine airway): prevented accumulation of viscous mucus and improves mucociliary clearance

B1: rhDNase: recombinant human DNase, an enzyme that breaks down extracellular DNA in mucus (protein, UniProt P24855 23-282, looked up)
Deoxyribonuclease-1: LKIAAFNIQTFGETKMSNATLVSYIVQILSRYDIALVQEVRDSHLTAVGKLLDNLNQDAPDTYHYVVSEPLGRNSYKERYLFVYRPDQVSAVDSYYYDDGCEPCGNDTFNREPAIVRFFSRFTEVREFAIVPLHAAPGDAVAEIDALYDVYLDVQEKWGLEDVMLMGDFNAGCSYVRPSQWSSIRLWTSPTFQWLIPDSADTTATPTHCAYDRIVVAGMLLRGAVVPDSALPFNFQAAYGLSDQLAQAISDHYPVEVMLK
clinical benefit ([1]; inhaled, adult CF subjects): substantial clinical benefits | efficacy ([1]; obstructive diseases other than CF): ineffective

From patent US12576051B2, “Methods and composition for treating respiratory obstructive diseases” (The Regents of the University of California, priority 2019, dated 2026)
